Data published in ChEMBL document CHEMBL4049384, “Synthesis and evaluation of an injectable everolimus prodrug” (Bioorg Med Chem Lett, 2017).
pIC50: −log10 of the molar value.

Columns and labels:
Blood [1] = assay: Prodrug conversion in Sprague-Dawley rat blood assessed as everolimus level at 2.724 mg/kg, iv at 6 hrs post dose by HPLC method; format: ADME, organism-based; settings: in vivo
Mus musculus [2] = assay: Toxicity in nude mouse xenografted with human OS-RC2 cells assessed as body weight loss at 1.5 mg/kg administered three times a week intravenously and measured on Day 8 (reference value: 8.5 %); format: organism-based; settings: in vivo, iv
Blood [3] = assay: Prodrug conversion in Sprague-Dawley rat blood assessed as everolimus level at 2.724 mg/kg, iv at 0.5 hrs post dose by HPLC method; format: ADME, organism-based; settings: in vivo
[4] = Half life in Sprague-Dawley rat at 2.724 mg/kg, iv; format: ADME, organism-based; settings: in vivo
Blood [5] = assay: Prodrug conversion in Sprague-Dawley rat blood assessed as everolimus level at 2.724 mg/kg, iv at 4 hrs post dose by HPLC method; format: ADME, organism-based; settings: in vivo
Mus musculus [6] = assay: Toxicity in nude mouse xenografted with human OS-RC2 cells assessed as body weight loss at 1.5 mg/kg administered three times a week intravenously and measured on Day 29 (reference value: 31.2 %); format: organism-based; settings: in vivo, iv
Mus musculus [7] = assay: Toxicity in nude mouse xenografted with human OS-RC2 cells assessed as body weight loss at 24 mg/kg, iv administered once weekly measured on day 12 (reference value: 15 %); format: organism-based; settings: in vivo
NCI-H460 = assay: Antiproliferative activity against human NCI-H460 cells after 48 hrs by MTT assay; format: functional, cell-based; settings: NCI-H460, 48 h
OS-RC-2 [8] = assay: Antitumor activity against human OS-RC2 cells xenografted in nude mouse assessed as reduction in tumor volume at 24 mg/kg, iv administered once weekly measured on day 5 relative to control; format: functional
Mus musculus [9] = assay: Toxicity in nude mouse xenografted with human OS-RC-2 cells assessed as death at 1.5 mg/kg, iv administered three times a week measured after 32 days; format: organism-based; settings: in vivo, 768 h
Mus musculus [10] = assay: Toxicity in nude mouse xenografted with human OS-RC2 cells assessed as body weight loss at 1.5 mg/kg, iv administered three times a week measured on Day 15 (reference value: 20.2 %); format: organism-based; settings: in vivo
OS-RC-2 [11] = assay: Antitumor activity against human OS-RC2 cells xenografted in nude mouse assessed as reduction in tumor volume at 1.5 mg/kg, iv administered three times a week measured on day 32 relative to control; format: functional
Mus musculus [12] = assay: Toxicity in nude mouse xenografted with human OS-RC-2 cells assessed as death at 24 mg/kg, iv administered once weekly measured after 32 days; format: organism-based; settings: in vivo, 768 h
OS-RC-2 [13] = assay: Antitumor activity against human OS-RC2 cells xenografted in nude mouse assessed as reduction in tumor volume at 24 mg/kg, iv administered once weekly measured on day 29 relative to control; format: functional
Mus musculus [14] = assay: Toxicity in nude mouse xenografted with human OS-RC-2 cells assessed as body weight at 1.5 mg/kg, iv administered three times a week measured on day 1 (reference value: 20.4 +/- 0.33 g); format: organism-based; settings: in vivo
Blood [15] = assay: Prodrug conversion in Sprague-Dawley rat blood assessed as everolimus level at 2.724 mg/kg, iv at 8 hrs post dose by HPLC method; format: ADME, organism-based; settings: in vivo
Mus musculus [16] = assay: Toxicity in nude mouse xenografted with human OS-RC2 cells assessed as body weight loss at 1.5 mg/kg administered three times a week intravenously and measured on Day 26 (reference value: 28.2 %); format: organism-based; settings: in vivo, iv
MDA-MB-435 = assay: Antiproliferative activity against human MDA-MB-435 cells after 48 hrs by MTT assay; format: functional, cell-based; settings: MDA-MB-435, 48 h
Rattus norvegicus = assay: Prodrug conversion in rat assessed as everolimus formation by measuring everolimus AUC at 2 mg/kg, iv; format: ADME, organism-based; settings: in vivo
OS-RC-2 [17] = assay: Antitumor activity against human OS-RC2 cells xenografted in nude mouse assessed as reduction in tumor volume at 1.5 mg/kg, iv administered three times a week measured on day 22 relative to control; format: functional
Blood [18] = assay: Prodrug conversion in Sprague-Dawley rat blood assessed as everolimus level at 2.724 mg/kg, iv at 1 hr post dose by HPLC method; format: ADME, organism-based; settings: in vivo
Serum = assay: Prodrug conversion in rat serum assessed as everolimus formation after 4 hrs by HPLC analysis; format: ADME, cell-free
HepG2 = assay: Antiproliferative activity against human HepG2 cells after 48 hrs by MTT assay; format: functional, cell-based; settings: HepG2, 48 h
OS-RC-2 [19] = assay: Antitumor activity against human OS-RC2 cells xenografted in nude mouse assessed as reduction in tumor volume at 24 mg/kg, iv administered once weekly measured on day 15 relative to control; format: functional
Mus musculus [20] = assay: Toxicity in nude mouse xenografted with human OS-RC2 cells assessed as body weight loss at 1.5 mg/kg administered three times a week intravenously and measured on Day 12 (reference value: 15 %); format: organism-based; settings: in vivo, iv
OS-RC-2 [21] = assay: Antitumor activity against human OS-RC2 cells xenografted in nude mouse assessed as tumor volume at 1.5 mg/kg, iv administered three times a week measured on day 1 (reference value: 167.51 +/- 17.09 mm3); format: functional
Blood [22] = assay: Prodrug conversion in Sprague-Dawley rat blood assessed as everolimus level at 2.724 mg/kg, iv at 0.0833 hrs post dose by HPLC method; format: ADME, organism-based; settings: in vivo, 5 min
OS-RC-2 [23] = assay: Antitumor activity against human OS-RC2 cells xenografted in nude mouse assessed as reduction in tumor volume at 1.5 mg/kg, iv administered three times a week measured on day 29 relative to control; format: functional
OS-RC-2 [24] = assay: Antitumor activity against human OS-RC2 cells xenografted in nude mouse assessed as reduction in tumor volume at 1.5 mg/kg, iv administered three times a week measured on day 26 relative to control; format: functional
OS-RC-2 [25] = assay: Antitumor activity against human OS-RC2 cells xenografted in nude mouse assessed as tumor growth inhibition at 1.5 mg/kg, iv administered three times a week measured after 32 days relative to control; format: functional; settings: OS-RC-2, iv, 768 h, read-out: TGI
Blood [26] = assay: Prodrug conversion in Sprague-Dawley rat blood assessed as everolimus level at 2.724 mg/kg, iv at 3 hrs post dose by HPLC method; format: ADME, organism-based; settings: in vivo
OS-RC-2 [27] = assay: Antitumor activity against human OS-RC2 cells xenografted in nude mouse assessed as reduction in tumor volume at 24 mg/kg, iv administered once weekly measured on day 22 relative to control; format: functional
OS-RC-2 [28] = assay: Antitumor activity against human OS-RC2 cells xenografted in nude mouse assessed as reduction in tumor volume at 1.5 mg/kg, iv administered three times a week measured on day 15 relative to control; format: functional

For `CO[C@H]1C[C@@H]2CC[C@@H](C)[C@@](O)(O2)C(=O)C(=O)N2CCCC[C@H]2C(=O)O[C@H]([C@H](C)C[C@@H]2CC[C@@H](OCCOC(=O)CSC[C@H](NC(=O)CC[C@H](N)C(=O)O)C(=O)NCC(=O)O)[C@H](OC)C2)CC(=O)[C@H](C)/C=C(\C)[C@@H](O)[C@@H](OC)C(=O)[C@H](C)C[C@H](C)\C=C/C=C/C=C/1C`, the Drug metabolism (Blood [1]) was 8.113 ng/mL, the Activity (Mus musculus [2]) was 9.2% and the Drug metabolism (Blood [3]) was 326.1655 ng/mL. It also gave a half-life [4] of 2.3 h, a Drug metabolism (Blood [5]) of 13.8243 ng/mL and an Activity (Mus musculus [6]) of 11.5%. The Activity (Mus musculus [7]) was 6.3%, the pIC50 (NCI-H460) was 4.57 and the T/C (OS-RC-2 [8]) was 0.55%. For the same compound, the Activity (Mus musculus [9]) was “Non-Toxic”, the Activity (Mus musculus [10]) was 12% and the T/C (OS-RC-2 [11]) was 0.52%. For the same compound, the Activity (Mus musculus [12]) was “Non-Toxic”, the T/C (OS-RC-2 [13]) was 0.54% and the Activity (Mus musculus [14]) was 20.67 g. The Drug metabolism (Blood [15]) was 6.8915 ng/mL, the Activity (Mus musculus [16]) was 13.1% and the pIC50 (MDA-MB-435) was 4.26. It also gave an AUC (Rattus norvegicus) of 2500 ng·h/mL, a T/C (OS-RC-2 [17]) of 0.56% and a Drug metabolism (Blood [18]) of 73.5532 ng/mL. The Drug metabolism (Serum) was “Metabolite_Detected”, the pIC50 (HepG2) was 4.95 and the T/C (OS-RC-2 [19]) was 0.41%. The Activity (Mus musculus [20]) was 9.5%, the Activity (OS-RC-2 [21]) was 167.6 mm3 and the Drug metabolism (Blood [22]) was 8421.1173 ng/mL. It also gave a T/C (OS-RC-2 [23]) of 0.54%, a T/C (OS-RC-2 [24]) of 0.52% and an inhibition in vivo at 1.5 mg/kg (OS-RC-2 [25]) of 57.1%. The Drug metabolism (Blood [26]) was 16.9443 ng/mL, the T/C (OS-RC-2 [27]) was 0.55% and the T/C (OS-RC-2 [28]) was 0.55%.
